HELM strings list units from the 5' end as sugar, base in round brackets, then linkage (d deoxyribose, r ribose, m 2'-O-methyl, p phosphodiester). Strings are as the collection lists them; they lack the last nucleoside at the 3' end of the tested compound. [moe] = 2'-O-(2-methoxyethyl) (MOE); [sp] = phosphorothioate linkage; [m5C] = 5-methylcytosine
Biological target: UBE3A-ATS
Experiment: mouse, dose not given
Conditions: ASO

Substance: RNA1{[moe](G)[sp].[moe](G)p.[moe](G)p.[moe](T)p.[moe](A)p.d(T)[sp].d(T)[sp].d(G)[sp].d([m5C])[sp].d(T)[sp].d(G)[sp].d(T)[sp].d([m5C])[sp].d([m5C])[sp].d(A)[sp].[moe](A)p.[moe](A)p.[moe](T)[sp].[moe](G)}$$$$ (last 3' nucleoside missing)
- 3 h FOB score: 6.8 score 0-7

Substance: RNA1{[moe](G)[sp].[moe](G)p.[moe](G)p.[moe](T)p.[moe](A)p.d([m5C])[sp].d(T)[sp].d(A)[sp].d(T)[sp].d(G)[sp].d(T)[sp].d(T)[sp].d(G)[sp].d(T)[sp].d([m5C])[sp].[moe](A)p.[moe]([m5C])p.[moe](T)[sp].[moe](G)}$$$$ (last 3' nucleoside missing)
- 3 h FOB score: 6 score 0-7

Substance: RNA1{[moe](G)[sp].[moe](G)p.[moe](G)p.[moe](T)p.[moe](T)p.d(A)[sp].d([m5C])[sp].d(T)[sp].d(T)[sp].d(T)[sp].d([m5C])[sp].d([m5C])[sp].d(A)[sp].d(A)[sp].d(T)[sp].[moe](A)p.[moe](G)p.[moe](A)[sp].[moe](G)}$$$$ (last 3' nucleoside missing)
- 3 h FOB score: 1.5 score 0-7

Substance: RNA1{[moe](G)[sp].[moe](G)p.[moe](G)p.[moe](T)p.[moe]([m5C])p.d(G)[sp].d(G)[sp].d(A)[sp].d(T)[sp].d(A)[sp].d(T)[sp].d(A)[sp].d(G)[sp].d([m5C])[sp].d(T)[sp].[moe](T)p.[moe](T)p.[moe](T)[sp].[moe](A)}$$$$ (last 3' nucleoside missing)
- 3 h FOB score: 5 score 0-7

Substance: RNA1{[moe](G)[sp].[moe](G)p.[moe](G)p.[moe]([m5C])p.[moe](A)p.d(A)[sp].d(A)[sp].d(A)[sp].d(A)[sp].d(T)[sp].d(A)[sp].d(G)[sp].d([m5C])[sp].d(A)[sp].d(A)[sp].[moe]([m5C])p.[moe](A)p.[moe](T)[sp].[moe](A)}$$$$ (last 3' nucleoside missing)
- 3 h FOB score: 5.8 score 0-7

Substance: RNA1{[moe](G)[sp].[moe](G)p.[moe](G)p.[moe]([m5C])p.[moe](A)p.d(G)[sp].d([m5C])[sp].d(A)[sp].d(A)[sp].d([m5C])[sp].d(A)[sp].d(G)[sp].d([m5C])[sp].d(T)[sp].d([m5C])[sp].[moe](T)p.[moe](T)p.[moe](G)[sp].[moe](A)}$$$$ (last 3' nucleoside missing)
- 3 h FOB score: 7 score 0-7

Substance: RNA1{[moe](G)[sp].[moe](G)p.[moe](G)p.[moe]([m5C])p.[moe](A)p.d([m5C])[sp].d(A)[sp].d(G)[sp].d(T)[sp].d(A)[sp].d(G)[sp].d(T)[sp].d(G)[sp].d(G)[sp].d(T)[sp].[moe](A)p.[moe](T)p.[moe]([m5C])[sp].[moe](A)}$$$$ (last 3' nucleoside missing)
- 3 h FOB score: 5.2 score 0-7

Substance: RNA1{[moe](G)[sp].[moe](G)p.[moe](T)p.[moe](A)p.[moe](A)p.d(G)[sp].d(G)[sp].d([m5C])[sp].d(A)[sp].d(G)[sp].d([m5C])[sp].d(T)[sp].d([m5C])[sp].d([m5C])[sp].d(T)[sp].[moe](G)p.[moe](A)p.[moe]([m5C])[sp].[moe](A)}$$$$ (last 3' nucleoside missing)
- 3 h FOB score: 1.3 score 0-7

Substance: RNA1{[moe](G)[sp].[moe](G)p.[moe](T)p.[moe](A)p.[moe](G)p.d(T)[sp].d([m5C])[sp].d(T)[sp].d(A)[sp].d(T)[sp].d(A)[sp].d(T)[sp].d(T)[sp].d(T)[sp].d(G)[sp].[moe](G)p.[moe](T)p.[moe](A)[sp].[moe](A)}$$$$ (last 3' nucleoside missing)
- 3 h FOB score: 6.2 score 0-7

Substance: RNA1{[moe](G)[sp].[moe](G)p.[moe](T)p.[moe](A)p.[moe](G)p.d([m5C])[sp].d([m5C])[sp].d([m5C])[sp].d([m5C])[sp].d(A)[sp].d(A)[sp].d(T)[sp].d(A)[sp].d([m5C])[sp].d(A)[sp].[moe](G)p.[moe](A)p.[moe](T)[sp].[moe](T)}$$$$ (last 3' nucleoside missing)
- 3 h FOB score: 1 score 0-7

Substance: RNA1{[moe](G)[sp].[moe](G)p.[moe](T)p.[moe](A)p.[moe](T)p.d(T)[sp].d(G)[sp].d(A)[sp].d([m5C])[sp].d(A)[sp].d([m5C])[sp].d([m5C])[sp].d(T)[sp].d([m5C])[sp].d([m5C])[sp].[moe](A)p.[moe](A)p.[moe]([m5C])[sp].[moe](T)}$$$$ (last 3' nucleoside missing)
- 3 h FOB score: 5 score 0-7

Substance: RNA1{[moe](G)[sp].[moe](G)p.[moe](T)p.[moe](T)p.[moe](A)p.d(A)[sp].d(G)[sp].d(T)[sp].d([m5C])[sp].d(T)[sp].d(G)[sp].d([m5C])[sp].d(T)[sp].d([m5C])[sp].d(T)[sp].[moe](T)p.[moe](T)p.[moe]([m5C])[sp].[moe](A)}$$$$ (last 3' nucleoside missing)
- 3 h FOB score: 4 score 0-7

Substance: RNA1{[moe](G)[sp].[moe](G)p.[moe](T)p.[moe](T)p.[moe](A)p.d(G)[sp].d(G)[sp].d(G)[sp].d([m5C])[sp].d(T)[sp].d(A)[sp].d(T)[sp].d(G)[sp].d(T)[sp].d(T)[sp].[moe](A)p.[moe](T)p.[moe](G)[sp].[moe](T)}$$$$ (last 3' nucleoside missing)
- 3 h FOB score: 6 score 0-7

Substance: RNA1{[moe](G)[sp].[moe](G)p.[moe](T)p.[moe](T)p.[moe](T)p.d(A)[sp].d(G)[sp].d(G)[sp].d(T)[sp].d([m5C])[sp].d(A)[sp].d(A)[sp].d([m5C])[sp].d([m5C])[sp].d(A)[sp].[moe](A)p.[moe](T)p.[moe](T)[sp].[moe](T)}$$$$ (last 3' nucleoside missing)
- 3 h FOB score: 6 score 0-7

Substance: RNA1{[moe](G)[sp].[moe](G)p.[moe](T)p.[moe](T)p.[moe](T)p.d(A)[sp].d(G)[sp].d(T)[sp].d(G)[sp].d(T)[sp].d([m5C])[sp].d(A)[sp].d(T)[sp].d(A)[sp].d(T)[sp].[moe](G)p.[moe](T)p.[moe](A)[sp].[moe](G)}$$$$ (last 3' nucleoside missing)
- 3 h FOB score: 5.5 score 0-7

Substance: RNA1{[moe](G)[sp].[moe](G)p.[moe](T)p.[moe]([m5C])[sp].d(A)[sp].d(T)[sp].d([m5C])[sp].d(T)[sp].d([m5C])[sp].d(G)[sp].d(G)[sp].d(G)[sp].[moe](T)p.[moe](A)p.[moe](T)p.[moe](A)[sp].[moe](T)}$$$$ (last 3' nucleoside missing)
- 3 h FOB score: 6.3 score 0-7

Substance: RNA1{[moe](G)[sp].[moe](G)p.[moe](T)p.[moe]([m5C])p.[moe](A)[sp].d(T)[sp].d([m5C])[sp].d(T)[sp].d([m5C])[sp].d(G)[sp].d(G)[sp].d(G)[sp].d(T)[sp].[moe](A)p.[moe](T)p.[moe](A)[sp].[moe](T)}$$$$ (last 3' nucleoside missing)
- 3 h FOB score: 6 score 0-7

Substance: RNA1{[moe](G)[sp].[moe](G)p.[moe](T)p.[moe]([m5C])p.[moe](A)p.[moe](A)p.d([m5C])[sp].d([m5C])[sp].d(A)[sp].d(A)[sp].d(T)[sp].d(T)[sp].d(T)[sp].d(G)[sp].d([m5C])[sp].d(T)[sp].[moe](A)p.[moe](T)[sp].[moe](T)}$$$$ (last 3' nucleoside missing)
- 3 h FOB score: 5 score 0-7

Substance: RNA1{[moe](G)[sp].[moe](G)p.[moe](T)p.[moe]([m5C])p.[moe](A)p.[moe](T)[sp].d([m5C])[sp].d(T)[sp].d([m5C])[sp].d(G)[sp].d(G)[sp].d(G)[sp].d(T)[sp].d(A)[sp].[moe](T)p.[moe](A)[sp].[moe](T)}$$$$ (last 3' nucleoside missing)
- 3 h FOB score: 6 score 0-7

Substance: RNA1{[moe](G)[sp].[moe](G)p.[moe](T)p.[moe]([m5C])p.[moe](A)p.[moe](T)p.d([m5C])[sp].d(T)[sp].d([m5C])[sp].d(G)[sp].d(G)[sp].d(G)[sp].d(T)[sp].d(A)[sp].d(T)[sp].d(A)[sp].[moe](T)p.[moe](A)[sp].[moe](A)}$$$$ (last 3' nucleoside missing)
- 3 h FOB score: 6 score 0-7

Substance: RNA1{[moe](G)[sp].[moe](G)p.[moe](T)p.[moe]([m5C])p.[moe](A)p.d(A)[sp].d([m5C])[sp].d([m5C])[sp].d(A)[sp].d(A)[sp].d(T)[sp].d(T)[sp].d(T)[sp].d(G)[sp].d([m5C])[sp].[moe](T)p.[moe](A)p.[moe](T)[sp].[moe](T)}$$$$ (last 3' nucleoside missing)
- 3 h FOB score: 3.8 score 0-7

Substance: RNA1{[moe](G)[sp].[moe](G)p.[moe](T)p.[moe]([m5C])p.[moe](A)p.d(G)[sp].d(A)[sp].d(T)[sp].d(T)[sp].d([m5C])[sp].d([m5C])[sp].d(T)[sp].d(A)[sp].d(A)[sp].d(A)[sp].[moe](T)p.[moe](A)p.[moe]([m5C])[sp].[moe](G)}$$$$ (last 3' nucleoside missing)
- 3 h FOB score: 1 score 0-7

Substance: RNA1{[moe](G)[sp].[moe](G)p.[moe](T)p.[moe]([m5C])p.[moe](A)p.d(T)[sp].d([m5C])[sp].d(T)[sp].d([m5C])[sp].d(G)[sp].d(G)[sp].d(G)[sp].d(T)[sp].d(A)[sp].d(T)[sp].[moe](A)p.[moe](T)p.[moe](A)[sp].[moe](A)}$$$$ (last 3' nucleoside missing)
- 3 h FOB score: 4.2 score 0-7

Substance: RNA1{[moe](G)[sp].[moe](G)p.[moe](T)p.[moe]([m5C])p.[moe]([m5C])p.d(A)[sp].d(T)[sp].d(A)[sp].d(G)[sp].d(A)[sp].d(T)[sp].d(G)[sp].d(T)[sp].d([m5C])[sp].d(A)[sp].[moe](G)p.[moe](T)p.[moe](T)[sp].[moe](A)}$$$$ (last 3' nucleoside missing)
- 3 h FOB score: 5.5 score 0-7

Substance: RNA1{[moe](G)[sp].[moe](G)p.[moe](T)p.[moe]([m5C])p.d(A)[sp].d(A)[sp].d([m5C])[sp].d([m5C])[sp].d(A)[sp].d(A)[sp].d(T)[sp].d(T)[sp].d(T)[sp].d(G)[sp].[moe]([m5C])p.[moe](T)p.[moe](A)p.[moe](T)[sp].[moe](T)}$$$$ (last 3' nucleoside missing)
- 3 h FOB score: 4.7 score 0-7

Substance: RNA1{[moe](G)[sp].[moe](G)p.[moe](T)p.[moe]([m5C])p.d(A)[sp].d(T)[sp].d([m5C])[sp].d(T)[sp].d([m5C])[sp].d(G)[sp].d(G)[sp].d(G)[sp].d(T)[sp].d(A)[sp].[moe](T)p.[moe](A)p.[moe](T)p.[moe](A)[sp].[moe](A)}$$$$ (last 3' nucleoside missing)
- 3 h FOB score: 5.5 score 0-7

Substance: RNA1{[moe](G)[sp].[moe](G)p.[moe]([m5C])p.[moe](A)p.[moe](A)p.d(G)[sp].d([m5C])[sp].d(A)[sp].d(A)[sp].d([m5C])[sp].d(T)[sp].d(A)[sp].d(T)[sp].d(G)[sp].d(G)[sp].[moe](G)p.[moe](T)p.[moe](G)[sp].[moe](G)}$$$$ (last 3' nucleoside missing)
- 3 h FOB score: 6.2 score 0-7

Reference: the OligoGym collection
